Values after ≈ are worked out from the molar mass of the structure shown.
Assay: Solubility of Compound (I) in solvent components
Assay type: physicochemical

solubility (oil or lipid, in isopropyl myristate): ~10 mg/mL (≈ 25.4 mM)
solubility (organic solvent or mixture, in benzyl alcohol): ~100 mg/mL (≈ 254 mM)
solubility (organic solvent or mixture, in propylene carbonate): ~33 mg/mL (≈ 83.7 mM)
solubility (organic solvent or mixture, in propylene glycol): ~3 mg/mL (≈ 7.61 mM)
Compound: COc1ccc(C(=O)Cc2c(Cl)cncc2Cl)c2c1OC1(CCCC1)O2 [Compound (I), 7-[2-(3,5-dichloro-4-pyridyl)-1-oxoethyl]-4-methoxy-spiro[1,3-benzodioxol-2,1′-cyclopentane]]

Reference: patent US20090012051A1, “EXTERNAL PREPARATION” (KYOWA HAKKO KOGYO CO., LTD., priority 2005, published 2009)
